Values quoted from earlier work, collected in patent US6955904B2, “Gene coding for quinone oxidoreductase of kluyveromyces marxianus and protein expressed therefrom” (Korea Institute of Science and Technology, priority 2001, dated 2005).

Assays:
[1] = target: human quinone oxidoreductase (Homo sapiens, UniProt P15559); conditions: Siegel et al., Mol. Pharmacol. 1997
[2] = target: T1, Arabidopsis thaliana quinone oxidoreductases (Arabidopsis thaliana, UniProt Q9LK88); conditions: Sparla et al., FEBS Letters 1999
T1 sequence (Q9LK88 1-196): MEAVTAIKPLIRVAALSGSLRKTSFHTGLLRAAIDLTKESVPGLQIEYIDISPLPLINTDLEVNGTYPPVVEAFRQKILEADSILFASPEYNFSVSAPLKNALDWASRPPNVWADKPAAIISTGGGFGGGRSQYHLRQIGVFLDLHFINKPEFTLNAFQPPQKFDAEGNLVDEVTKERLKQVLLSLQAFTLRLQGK

human quinone oxidoreductase, sequence (P15559 whole entry): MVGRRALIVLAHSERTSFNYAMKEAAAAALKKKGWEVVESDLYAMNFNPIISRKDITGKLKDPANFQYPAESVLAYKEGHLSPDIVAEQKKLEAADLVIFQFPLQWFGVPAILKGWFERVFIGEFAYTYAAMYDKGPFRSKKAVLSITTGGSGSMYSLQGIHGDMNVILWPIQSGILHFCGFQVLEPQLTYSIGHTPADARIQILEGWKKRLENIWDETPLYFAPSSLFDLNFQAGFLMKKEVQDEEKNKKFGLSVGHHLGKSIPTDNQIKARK

Structure (SMILES) | rate constant for the reaction [1] | rate constant for the reaction [2]
CC1=C(C)C(=O)C(CC[C@](C)(O)CCC[C@H](C)CCC[C@H](C)CCCC(C)C)=C(C)C1=O [α-tocopherol quinone] | 1.5×10^7 M^−1m^−1 | 
CC1=C(C)C(=O)C(C)=C(C)C1=O [duroquinone] |  | 3.2×10^7 M^−1m^−1
